Source: ChEMBL document CHEMBL1201862, “PubChem BioAssay data set” (2004)
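1) Cells in 96-well plates. 2) Compound, 48 h, 5 concentrations. 3) Linear interpolation between surrounding doses. 4) Unreached endpoint = highest concentration. At the GI50, growth is halved.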 The source made the active and inactive calls. Cut-off read from the data, not from the text of the source: active = GI50 up to about 1.1 µM and inactive = higher.

What was measured:
Assay in all cases: NCI anticancer screen, dose series, 48 h
NCI-H226 = test system: NCI-H226
SNB-19 = test system: SNB-19
MDA-N = test system: MDA-N
SF-268 = test system: SF-268
OVCAR-8 = test system: OVCAR-8
BT-549 = test system: BT-549
M14 = test system: M14
786-0 = test system: 786-0
SF-539 = test system: SF-539
EKVX = test system: EKVX
MCF7 = test system: MCF7
NCI/ADR-RES = test system: NCI/ADR-RES
HOP-62 = test system: HOP-62
DU-145 = test system: DU-145
UO-31 = test system: UO-31
RXF 393 = test system: RXF 393
Malme-3M = test system: Malme-3M
HCT-15 = test system: HCT-15
MDA-MB-435 = test system: MDA-MB-435
T47D = test system: T47D

| SMILES | GI50 (NCI-H226) | GI50 (SNB-19) | GI50 (MDA-N) | GI50 (SF-268) | GI50 (OVCAR-8) | GI50 (BT-549) | GI50 (M14) | GI50 (786-0) | GI50 (SF-539) | GI50 (EKVX) | GI50 (MCF7) | GI50 (NCI/ADR-RES) | GI50 (HOP-62) | GI50 (DU-145) | GI50 (UO-31) | GI50 (RXF 393) | GI50 (Malme-3M) | GI50 (HCT-15) | GI50 (MDA-MB-435) | GI50 (T47D) |
| --- | --- | --- | --- | --- | --- | --- | --- | --- | --- | --- | --- | --- | --- | --- | --- | --- | --- | --- | --- | --- |
| CNC/C(Cl)=N/S(=O)(=O)c1ccc(C)cc1 | 19.5 µM (inactive) | 20.4 µM (inactive) | 6.85 µM (inactive) | 19.5 µM (inactive) | 18.9 µM (inactive) | 16.3 µM (inactive) | 10.3 µM (inactive) | 9.93 µM (inactive) | 9.71 µM (inactive) | 15.6 µM (inactive) | 7.94 µM (inactive) | 26.1 µM (inactive) | 14 µM (inactive) | 5.07 µM (inactive) | 12.1 µM (inactive) | 2.2 µM (inactive) | 9.66 µM (inactive) | 16.1 µM | 6.15 µM (inactive) |  |
| CC1=CC2=C(C(N)=O)C(=O)OC2(C)C(c2ccccc2)C1 (stereo not drawn) | > 100 µM (inactive) | > 100 µM (inactive) | > 100 µM (inactive) | > 100 µM (inactive) | > 100 µM (inactive) | > 100 µM (inactive) | > 100 µM (inactive) | > 100 µM (inactive) | > 100 µM (inactive) | > 100 µM (inactive) | > 100 µM (inactive) | > 100 µM (inactive) | > 100 µM (inactive) | > 100 µM (inactive) | > 100 µM (inactive) |  | > 100 µM (inactive) | > 100 µM | > 100 µM (inactive) |  |
| CCOP(=O)(OCC)c1cc(-c2ccccc2)ccc1N |  | > 100 µM (inactive) | > 100 µM (inactive) | > 100 µM (inactive) | > 100 µM (inactive) | > 100 µM (inactive) | > 100 µM (inactive) | > 100 µM (inactive) |  | 41.5 µM (inactive) | > 100 µM (inactive) | > 100 µM (inactive) | 37.2 µM (inactive) | > 100 µM (inactive) | > 100 µM (inactive) | 33 µM (inactive) | > 100 µM (inactive) | > 100 µM | > 100 µM (inactive) |  |
| COc1ccc(C(CC(=O)C(C)(C)CN2CCCCC2)SCCS(=O)(=O)O)cc1 (stereo not drawn) | 21.9 µM (inactive) | 83.9 µM (inactive) | 29.6 µM (inactive) |  | 33.3 µM (inactive) | 45.7 µM (inactive) | 18.7 µM (inactive) | 18.3 µM (inactive) | 19.9 µM (inactive) | 30.4 µM (inactive) | 28.7 µM (inactive) | 35.4 µM (inactive) | 77.8 µM (inactive) | 66.1 µM (inactive) | 37.4 µM (inactive) | 40.4 µM (inactive) | 20.9 µM (inactive) | 34.2 µM | 18.3 µM (inactive) |  |
| OC1(c2ccccc2)OC(C#Cc2ccccc2)(c2ccccc2)c2ccccc21 (stereo not drawn) | 2.62 µM (inactive) | 13.2 µM (inactive) |  | 4.18 µM (inactive) | 2.45 µM (inactive) |  | 2.21 µM (inactive) | 3.73 µM (inactive) | 1.97 µM (inactive) | 3.19 µM (inactive) |  |  | 15.4 µM (inactive) |  | 1.71 µM (inactive) | 1.95 µM (inactive) | 10.6 µM (inactive) | 3.44 µM |  |  |
| O=C1C(O)=C(CCCc2ccc(Oc3ccccc3)cc2)C(=O)c2ccccc21 | 10.8 µM (inactive) | 7.46 µM (inactive) |  | 7.64 µM (inactive) | 7.76 µM (inactive) |  | 10.5 µM (inactive) | 5.64 µM (inactive) | 6.46 µM (inactive) | 11.6 µM (inactive) |  |  | 10.7 µM (inactive) |  | 5.92 µM (inactive) | 14.4 µM (inactive) | 12.9 µM (inactive) | 4.28 µM |  |  |
| Cc1cccc(C)c1NC(=O)C(C#N)C1=C(Cl)C(=O)c2ccccc2C1=O (stereo not drawn) | 12.1 µM (inactive) | 16 µM (inactive) | 14.4 µM (inactive) | 15.5 µM (inactive) | 16.9 µM (inactive) | 14.6 µM (inactive) | 10.1 µM (inactive) | 22 µM (inactive) | 21.4 µM (inactive) | 21.4 µM (inactive) | 20 µM (inactive) |  | 18 µM (inactive) | 14.5 µM (inactive) | 13.6 µM (inactive) | > 32.8 µM (inactive) | 15.2 µM (inactive) | 19.1 µM | 17.2 µM (inactive) |  |
| N#Cc1[nH]c(=O)n(-c2ccc([N+](=O)[O-])cc2)c1N | > 10 µM (inactive) | > 10 µM (inactive) | > 10 µM (inactive) | > 10 µM (inactive) | > 10 µM (inactive) |  | > 10 µM (inactive) | > 10 µM (inactive) | > 10 µM (inactive) | > 10 µM (inactive) |  | > 10 µM (inactive) | > 10 µM (inactive) | > 10 µM (inactive) | > 10 µM (inactive) | > 10 µM (inactive) | > 10 µM (inactive) | > 10 µM | > 10 µM (inactive) | > 10 µM (inactive) |
| CC1=NN(c2nc(N)nc(C/C(N)=N/O)n2)C(C)(C)C1 | > 100 µM (inactive) | > 100 µM (inactive) |  | > 100 µM (inactive) | > 100 µM (inactive) | > 100 µM (inactive) | > 100 µM (inactive) | > 100 µM (inactive) | > 100 µM (inactive) | > 100 µM (inactive) | > 100 µM (inactive) | > 100 µM (inactive) | > 100 µM (inactive) | > 100 µM (inactive) | > 100 µM (inactive) |  | > 100 µM (inactive) | > 100 µM | > 100 µM (inactive) |  |
| CC(C)(C)c1cc(CCC(=O)Nc2ccc(Cl)cc2Cl)nc(N)n1 | > 100 µM (inactive) | > 100 µM (inactive) |  | > 100 µM (inactive) | > 100 µM (inactive) |  | > 100 µM (inactive) | > 100 µM (inactive) | > 100 µM (inactive) | > 100 µM (inactive) |  |  | > 100 µM (inactive) |  | > 100 µM (inactive) | > 100 µM (inactive) | > 100 µM (inactive) | > 100 µM |  |  |
| O=C(/C=C/c1ccccc1F)c1ccc(Cl)c(Cl)c1 | > 100 µM (inactive) | > 58.6 µM (inactive) |  | 38.3 µM (inactive) | 33 µM (inactive) |  | 32.4 µM (inactive) | 17.3 µM (inactive) | 30 µM (inactive) | > 100 µM (inactive) |  |  | > 100 µM (inactive) |  | 40.9 µM (inactive) | 21.9 µM (inactive) | > 92.9 µM (inactive) | 37.1 µM |  |  |
| COc1ccc(S(=O)(=O)Nc2ccc(-c3csc(N4C(=O)/C(=C/c5ccccc5)N=C4c4ccccc4)n3)cc2)cc1Cl | 33.2 µM (inactive) | 44.2 µM (inactive) | 38.7 µM (inactive) | 31.4 µM (inactive) | 31.5 µM (inactive) |  | 24.8 µM (inactive) | 46.5 µM (inactive) | 41.6 µM (inactive) |  | 36.8 µM (inactive) | 45.4 µM (inactive) | 36.4 µM (inactive) | 27.8 µM (inactive) | 5.62 µM (inactive) | 24.4 µM (inactive) | 38.3 µM (inactive) | 20.2 µM | 27.5 µM (inactive) | 17.9 µM (inactive) |
| COc1c(C)c(C/C=C(\C)CC/C=C(\C)CC/C=C(\C)CC/C=C(\C)CCC=C(C)C)c(OC)c(OC)c1OC |  | > 100 µM (inactive) | 31.4 µM (inactive) | 18.6 µM (inactive) | 18.4 µM (inactive) | 85.1 µM (inactive) | 50.9 µM (inactive) | 16.9 µM (inactive) | > 100 µM (inactive) | 44.4 µM (inactive) | 51.1 µM (inactive) | 25 µM (inactive) | 15.6 µM (inactive) | > 100 µM (inactive) | 21.6 µM (inactive) | 17.4 µM (inactive) |  | 92 µM | 31.1 µM (inactive) |  |
| CNC(=O)c1nn[nH]c1O | > 100 µM (inactive) | > 100 µM (inactive) | > 100 µM (inactive) | > 100 µM (inactive) | > 100 µM (inactive) |  | > 100 µM (inactive) | > 100 µM (inactive) |  | > 100 µM (inactive) | > 100 µM (inactive) | > 100 µM (inactive) | > 100 µM (inactive) | > 100 µM (inactive) | > 100 µM (inactive) | > 100 µM (inactive) | > 100 µM (inactive) | > 100 µM | > 100 µM (inactive) | > 100 µM (inactive) |
| CC1CCC23COC(=O)C2C(O)CCC3C1(C)CC(O)c1ccoc1 (stereo not drawn) | > 100 µM (inactive) | > 100 µM (inactive) |  | > 100 µM (inactive) | > 100 µM (inactive) |  | > 100 µM (inactive) | > 100 µM (inactive) | > 100 µM (inactive) | > 100 µM (inactive) |  |  | > 100 µM (inactive) |  | > 100 µM (inactive) | > 100 µM (inactive) | > 100 µM (inactive) | > 100 µM |  |  |
| CC(O)(c1ccc(OCCC[N+](C)(C)C)cc1)C(C)(O)c1ccc(OCCC[N+](C)(C)C)cc1 (stereo not drawn) | > 100 µM (inactive) | > 100 µM (inactive) |  | > 100 µM (inactive) | > 100 µM (inactive) |  | > 100 µM (inactive) | > 100 µM (inactive) | > 100 µM (inactive) | > 100 µM (inactive) |  |  | > 100 µM (inactive) |  | > 100 µM (inactive) | > 100 µM (inactive) | > 100 µM (inactive) | > 100 µM |  |  |
| CCC[C@@H]1C(=O)N=C(N)N1C(=O)OCc1ccccc1 | > 100 µM (inactive) | > 100 µM (inactive) | > 100 µM (inactive) | > 100 µM (inactive) | > 100 µM (inactive) | > 100 µM (inactive) |  | > 100 µM (inactive) |  | > 100 µM (inactive) | > 100 µM (inactive) | > 100 µM (inactive) | > 100 µM (inactive) | > 100 µM (inactive) | > 100 µM (inactive) | > 100 µM (inactive) | > 100 µM (inactive) | > 100 µM | > 100 µM (inactive) |  |
